Data: publication PMC11932207, “Regulating AMPA Receptors with Isoxazole-4-Carboxamide Derivatives: An Electrophysiological Study” (Journal of Xenobiotics, 2025)
Read-outs that look alike come from different tables or passages of the source.

Experiments:
GluA2/3 = biological target: T1, GluA2/3 (UniProt P19491+P42263); experiment: Whole-cell patch clamp recordings of heteromeric GluA2/3 AMPA receptor currents and kinetics in transfected HEK293t cells; format: cell-based; details: for Amplitude (peak whole-cell current in presence of compound): 16 µM compound co-applied with agonist, HEK293t, −60 mV, pH 7.4, 22 °C; for Amplitude (peak whole-cell current in presence of compound) / A/AI (amplitude ratio, glutamate alone / with compound) / t deact (weighted deactivation time constant) / t des (weighted desensitization time constant) / Amplitude, applying glutamate alone after compound: mean ± SD; for Amplitude (peak whole-cell current in presence of compound) / A/AI (amplitude ratio, glutamate alone / with compound) / Amplitude, applying glutamate alone after compound: n = 10; for A/AI (amplitude ratio, glutamate alone / with compound): 16 µM compound; for t deact (weighted deactivation time constant): 10 mM glutamate for 1 ms; for t deact (weighted deactivation time constant) / t des (weighted desensitization time constant): with compound; for t des (weighted desensitization time constant): 10 mM glutamate for 500 ms; for Amplitude, applying glutamate alone after compound: glutamate alone after the compound; for Effect on deactivation kinetics (τdeac), in words / Effect on desensitization kinetics (τdes), in words: versus glutamate alone, one-way ANOVA
T1 construct: expressed in transfected cells; host or cells: HEK293T (HEK293) cells, transient co-transfection
Description: (§1) The AMPA receptor subunits utilized in this study were of the flip isoform. The flip variant of the GluA2 subunit was originally provided by S. F. Heinemann (Salk Institute, La Jolla, CA, USA) in a pBlueScript plasmid. This plasmid was subsequently sub-cloned into a pRK vector to enable expression in HEK293 cells, which were sourced from Sigma, Germany. Additionally, the unedited version of GluA2 (R607Qjj, flip isoform) and enhanced green fluorescent protein (EGFP), both contained in pRK5 vectors, were generously supplied by P. H. Seeburg (Max Planck Institute for Medical Research, Heidelberg, Germany). Chemical-mediated ways induced transfection. GluA2 homomers were expressed into HEK293 cells by the co-transfection of 1 μg GluA2 plasmid with an equal amount of GFP expression vectors (1:1 ratio) into the cells. In addition, co-transfection was conducted for heteromeric GluA2/3 subunits at a ratio of 1:1.2 for optimum expression. For post-transfection experiments, cells were plated in 10% fetal calf serum and antibiotics in DMEM in Petri plates. These cultures were maintained under carefully controlled conditions—37 °C and 5% CO2 within a humidified incubator. The selection of cells for recordings was based on fluorescence intensity. Highly GFP-positive cells were identified and isolated for further analysis, ensuring precise targeting of transfected populations.
(§2) Whole-cell patch clamp recordings were performed on HEK293t cells 36–48 h after transfection. Experiments were conducted at 22 °C, maintaining a holding potential of −60 mV, using an Integrated Patch Amplifier (IPA) from Sutter Instruments (Novato, CA, USA). Data acquisition was managed with SutterPatch Software v. 1.1.1 (Sutter Instruments), employing a sampling rate of 10 kHz and setting the low-pass filter at 2 kHz. […] The external solution contained 150 mM NaCl, 2.8 mM KCl, 0.5 mM MgCl2, 2 mM CaCl2, and 10 mM HEPES, adjusted to a pH of 7.4 using NaOH. The internal pipette solution was composed of 110 mM CsF, 30 mM CsCl, 4 mM NaCl, 0.5 mM CaCl2, 10 mM trypsin-EDTA solution B (0.25%), 0.05% EDTA, and 10 mM HEPES, with the pH adjusted to 7.2 using CsOH.
(§3) A dual-barrel glass pipette (theta tube) was employed for the rapid delivery of glutamate and other solutions. The theta tube was attached to a high-speed piezoelectric solution exchange system (Automate Scientific, Berkeley, CA, USA). To assess the efficiency of solution exchange, open-tip potentials were measured by applying solutions with different ionic compositions after the patch was expelled from the pipette. The time required for a 10–90% change in the solution was generally less than […].
(§4) Data analysis was performed with Igor Pro8.04 software (Wave Metrics, Inc., Portland, OR, USA). AMPA receptor deactivation and desensitization kinetics were measured by applying 10 mM glutamate for 1 ms and 500 ms, respectively. The currents from the AMPA receptor were fitted to a double-exponential model to quantify deactivation and desensitization time constants measured from the double-exponential fits. The weighted tau (τw) is calculated as: τw = (τf × af) + (τs × as), where τf and τs are the time constants of fast and slow exponential components and af and as represent their relative amplitudes.
(§5) Data are presented as the mean ± standard deviation (SD). The total number of HEK293 cells engaged was n = 10. The experimental groups were compared to the wild type using a one-way analysis of variance (ANOVA). Statistical significance was assessed using p values: p < 0.05 (*) indicated significance, p < 0.01 (**) indicated high significance, and p < 0.001 (***) indicated very high significance. The value “ns” indicates non-significance. Concentration–response relationships were modeled using the Hill equation with the resulting combined plots via GraphPad Prism software (version 6.01, GraphPad Software). The data presented are the means from 3–4 experimental replicates. […]

GluA2 = biological target: T2, GluA2 (Rattus norvegicus, UniProt P19491); experiment: Whole-cell patch clamp recordings of homomeric GluA2 AMPA receptor currents and kinetics in transfected HEK293t cells; format: cell-based; details: for Amplitude (peak whole-cell current in presence of compound): 16 µM compound co-applied with agonist, HEK293t, −60 mV, pH 7.4, 22 °C; for Amplitude (peak whole-cell current in presence of compound) / A/AI (amplitude ratio, glutamate alone / with compound) / t deact (weighted deactivation time constant) / t des (weighted desensitization time constant) / Amplitude, applying glutamate alone after compound: mean ± SD; for Amplitude (peak whole-cell current in presence of compound) / A/AI (amplitude ratio, glutamate alone / with compound) / Amplitude, applying glutamate alone after compound: n = 10; for A/AI (amplitude ratio, glutamate alone / with compound): 16 µM compound; for t deact (weighted deactivation time constant): 10 mM glutamate for 1 ms; for t deact (weighted deactivation time constant) / t des (weighted desensitization time constant): with compound; for t des (weighted desensitization time constant): 10 mM glutamate for 500 ms; for Amplitude, applying glutamate alone after compound: glutamate alone after the compound; for Effect on deactivation kinetics (τdeac), in words / Effect on desensitization kinetics (τdes), in words: versus glutamate alone, one-way ANOVA
T2 construct: expressed in transfected cells; host or cells: HEK293T (HEK293) cells, transient co-transfection with a separate EGFP vector
Description: as §1, §2, §3, §4, §5

[1] = concentration–response fit, read-out: Log IC50 (converted)
[2] = inhibition of whole-cell peak current, concentration–response, Hill fit, read-out: IC50

T2 sequence (P19491 22-883 isoform P19491-2 limits assumed): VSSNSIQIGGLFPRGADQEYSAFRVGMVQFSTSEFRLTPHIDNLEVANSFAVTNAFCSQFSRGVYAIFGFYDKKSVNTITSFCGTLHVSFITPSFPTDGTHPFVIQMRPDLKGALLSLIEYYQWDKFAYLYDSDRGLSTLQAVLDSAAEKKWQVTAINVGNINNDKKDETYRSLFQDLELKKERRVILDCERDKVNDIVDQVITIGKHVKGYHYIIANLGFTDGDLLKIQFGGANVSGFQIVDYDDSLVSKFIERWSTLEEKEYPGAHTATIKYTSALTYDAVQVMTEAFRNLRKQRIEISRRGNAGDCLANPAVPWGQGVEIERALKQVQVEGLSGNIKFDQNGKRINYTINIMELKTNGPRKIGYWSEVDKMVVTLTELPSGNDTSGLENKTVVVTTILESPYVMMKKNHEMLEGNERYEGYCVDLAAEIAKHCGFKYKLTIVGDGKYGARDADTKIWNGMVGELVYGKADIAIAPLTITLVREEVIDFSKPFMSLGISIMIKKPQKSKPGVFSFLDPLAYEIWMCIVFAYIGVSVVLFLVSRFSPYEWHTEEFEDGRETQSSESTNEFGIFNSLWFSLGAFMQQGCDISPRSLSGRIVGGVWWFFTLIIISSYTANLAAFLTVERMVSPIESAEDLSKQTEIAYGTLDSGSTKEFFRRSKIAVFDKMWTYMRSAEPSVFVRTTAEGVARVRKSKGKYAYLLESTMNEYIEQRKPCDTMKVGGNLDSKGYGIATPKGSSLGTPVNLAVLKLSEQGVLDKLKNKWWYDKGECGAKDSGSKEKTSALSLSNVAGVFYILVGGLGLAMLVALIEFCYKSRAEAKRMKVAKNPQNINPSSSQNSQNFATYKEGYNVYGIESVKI
T1 sequence (P19491 22-883 isoform P19491-2 limits assumed): as above
T1 sequence (P42263 29-894 isoform P42263-2 limits assumed): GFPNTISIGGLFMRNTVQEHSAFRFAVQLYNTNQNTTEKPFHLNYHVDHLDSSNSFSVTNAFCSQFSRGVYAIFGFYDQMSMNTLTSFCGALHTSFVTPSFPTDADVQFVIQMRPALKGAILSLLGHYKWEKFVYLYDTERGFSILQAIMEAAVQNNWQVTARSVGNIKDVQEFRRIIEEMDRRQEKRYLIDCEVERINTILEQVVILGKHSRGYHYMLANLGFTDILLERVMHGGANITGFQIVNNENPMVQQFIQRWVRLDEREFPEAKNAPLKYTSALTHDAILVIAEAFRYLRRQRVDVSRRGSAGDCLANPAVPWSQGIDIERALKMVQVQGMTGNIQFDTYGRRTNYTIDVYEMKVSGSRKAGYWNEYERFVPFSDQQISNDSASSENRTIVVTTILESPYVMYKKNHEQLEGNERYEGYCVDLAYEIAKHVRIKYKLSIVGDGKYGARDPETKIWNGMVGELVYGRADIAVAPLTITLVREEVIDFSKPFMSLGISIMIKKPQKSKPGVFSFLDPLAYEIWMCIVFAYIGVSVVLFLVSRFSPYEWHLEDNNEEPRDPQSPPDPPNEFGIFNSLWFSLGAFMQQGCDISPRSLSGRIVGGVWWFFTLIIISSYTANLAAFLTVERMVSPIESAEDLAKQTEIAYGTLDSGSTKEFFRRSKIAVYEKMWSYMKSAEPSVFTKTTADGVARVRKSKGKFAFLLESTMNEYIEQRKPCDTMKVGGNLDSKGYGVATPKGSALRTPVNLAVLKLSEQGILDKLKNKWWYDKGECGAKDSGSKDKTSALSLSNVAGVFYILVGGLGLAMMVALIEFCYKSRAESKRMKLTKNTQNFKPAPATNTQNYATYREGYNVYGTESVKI

Row | SMILES | Amplitude (peak whole-cell current in presence of compound) (GluA2/3) [pA] | A/AI (amplitude ratio, glutamate alone / with compound) (GluA2/3) | t deact (weighted deactivation time constant) (GluA2/3) [ms] | t des (weighted desensitization time constant) (GluA2/3) [ms] | IC50 (GluA2/3; [1]) [µM] | Amplitude, applying glutamate alone after compound (GluA2/3) [pA] | IC50 (GluA2/3; [2]) [µM] | Effect on deactivation kinetics (τdeac), in words (GluA2/3) | Effect on desensitization kinetics (τdes), in words (GluA2/3) | Amplitude (peak whole-cell current in presence of compound) (GluA2) [pA] | A/AI (amplitude ratio, glutamate alone / with compound) (GluA2) | t deact (weighted deactivation time constant) (GluA2) [ms] | t des (weighted desensitization time constant) (GluA2) [ms] | IC50 (GluA2; [1]) [µM] | Amplitude, applying glutamate alone after compound (GluA2) [pA] | IC50 (GluA2; [2]) [µM] | Effect on deactivation kinetics (τdeac), in words (GluA2) | Effect on desensitization kinetics (τdes), in words (GluA2)
1 | Cc1onc(-c2c(Cl)cccc2Cl)c1C(=O)Nc1ccccc1 [CIC-8, 3-(2,6-dichlorophenyl)-5-methyl-N-phenylisoxazole-4-carboxamide] | 123±20 | 4.30±0.20 | 4.9 ± 0.3 | 1.9 ± 0.1 | 6.31 | 513±99 | 6.3 | statistically significant prolongation of τdeac | accelerated desensitization, although to a lesser degree | 291±22 | 4.36±0.19 | 4.8 ± 0.2 | 1.9 ± 0.1 | 6.17 | 1235±151 | 6.21 | statistically significant prolongation of τdeac | accelerated desensitization, although to a lesser degree
2 | Cc1onc(-c2c(Cl)cccc2Cl)c1C(=O)Nc1ccc(-c2ccccc2)cc1 [CIC-9, N-([1,1′-biphenyl]-4-yl)-3-(2,6-dichlorophenyl)-5-methylisoxazole-4-carboxamide] | 124±19 | 4.01±0.19 | 4.5 ± 0.3 | 2.0 ± 0.1 | 6.46 | 484±89 | 6.42 | statistically significant prolongation of τdeac | accelerated desensitization, although to a lesser degree | – | 4.10±0.18 | 4.6 ± 0.2 | 2.0 ± 0.1 | 6.31 | 1226±158 | 6.3 | statistically significant prolongation of τdeac | accelerated desensitization, although to a lesser degree
3 | Cc1onc(-c2c(Cl)cccc2Cl)c1C(=O)Nc1ccc(OC(F)(F)F)cc1 [CIC-10, 3-(2,6-dichlorophenyl)-5-methyl-N-(4-(trifluoromethoxy)phenyl)isoxazole-4-carboxamide] | 128±29 | 3.86±0.18 | 4.3 ± 0.2 | 2.5 ± 0.1 | 6.61 | 482±128 | 6.62 | statistically significant prolongation of τdeac | did not significantly alter desensitization kinetics | 328±35 | 3.90±0.16 | 4.4 ± 0.2 | 2.3 ± 0.1 | 6.46 | 1249±188 | 6.51 | statistically significant prolongation of τdeac | did not significantly alter desensitization kinetics
4 | Cc1onc(-c2c(F)cccc2Cl)c1C(=O)Nc1ccc(OC(F)(F)F)cc1 [CIC-11, 3-(2-chloro-6-fluorophenyl)-5-methyl-N-(4-(trifluoromethoxy)phenyl)isoxazole-4-carboxamide] | 141±29 | 3.46±0.16 | 2.9 ± 0.2 | 2.3 ± 0.1 | 7.08 | 476±112 | 7.13 | did not elicit statistically significant changes | did not significantly alter desensitization kinetics | 359±28 | 3.53±0.15 | 3.0 ± 0.2 | – | 7.08 | 1233±147 | 7.02 | did not elicit statistically significant changes | did not significantly alter desensitization kinetics
5 | Cc1onc(-c2c(Cl)cccc2Cl)c1C(=O)Nc1ccc(C(C)(C)C)cc1 [CIC-12, N-(4-(tert-butyl)phenyl)-3-(2,6-dichlorophenyl)-5-methylisoxazole-4-carboxamide] | 162±36 | 3.01±0.14 | 2.8 ± 0.2 | 2.3 ± 0.1 | 7.59 | 478±127 | 7.5 | did not elicit statistically significant changes | did not significantly alter desensitization kinetics | 417±47 | 3.04±0.13 | 2.7 ± 0.2 | 2.4 ± 0.1 | 7.59 | 1237±195 | 7.54 | did not elicit statistically significant changes | did not significantly alter desensitization kinetics
